# Measured values: patent publication US20250276996A1, “CATIONICALLY-ENFRAMED HIGH DENSITY AROMATIC PEPTIDES” (Research Foundation of the City University of New York, priority 2022, published 2025)
# “Also recorded” adds a separate entry of the source. Non-standard residues stand in square brackets, D forms with d. Residues, ends and D or L forms follow the SMILES beside them. *: point of attachment. Biotin = O=C1N[C@H]2[C@H](CS[C@H]2CCCCC(=O)*)N1
# Assays:
# [1] = NAO fluorescence with POPC liposomes; assay type: binding
# Experimental: (§1) The resulting multilamellar vesicles were vortexed lightly and sized into small unilamellar vesicles by heated bath sonication for 25 min. All liposomes were cooled to ambient temperature before use.
# Interaction of biotin-HDAP2 Peptide with Phospholipids: The ability of biotin-HDAP2 to displace nonyl acridine orange (NAO), a fluoroprobe known to selectively bind CL was determined. Interaction of biotin-HDAP2 with phospholipids was examined by measuring changes in the fluorescence spectra of 3 μM NAO (Molecular Devices, Sunnyvale, CA)) with excitation at 480 nm. CL and POPC in liposomes were use at 30 μM. Dose response curves were done with 30 μM CL, biotin-HDAP2 (0, 2.5, 5, 10, 20, and 30 μM), and 3 μM of NAO (ex/em at 480 nm/520 nm). All experiments were done in 10 mM Hepes (pH 7.4) to optimize electrostatic interactions of peptides with phospholipids.
# [2] = Nile Red fluorescence shift in POPC liposomes; assay type: binding
# Experimental: as §1
# Interactions between biotin-HDAP2 and Phospholipid liposomes measured by Nile Red fluorescence: The hydrophobicity of biotin-HDAP2 and phospholipids was examined by changes in the spectral fluorescence shift and intensity of Nile Red (NR, 10 μM). NR increases its intensity of fluorescence when combined with the hydrophobic environments of acyl chains of phospholipids, and produces a blue shift when hydrophobicity is increased. All experiments were done with 30 μM of either CL or POPC and 30 μM of biotin-HDAP2 in 10 mM Hepes (pH 7.4) to optimize the electrostatic interactions of peptides with phospholipids. The solvents used to dissolve the various phospholipids (chloroform, methanol, and ethanol) had negligible effects on the fluorescence spectra.
# [3] = test system: retinal ganglion cells (RGCs); experiment: Optic nerve crush (ONC), retinal ganglion cell survival; assay type: in vivo, C57BL/6 mice; conditions: for Average density of retinal ganglion cells: 3 mg/kg IP daily 14 days
# Excerpt: Quantification of Retinal Ganglion Cell Survival: To test whether the protective effects of biotin-HDAP2 in serum-starved cultured cells extended to neurons in vivo, the survival of RGCs following optic nerve crush (ONC) in the presence and absence of the peptide was studied. To control for density differences of RGCs across the retina, values were standardized by comparing ratios of RBPMS-labeled RGCs with the densities of starburst amacrine cells labeled by choline acetyltransferase (ChAT). Starburst amacrine cells, like other displaced amacrine cells, are unaffected by ONC in the short-term. In control tissue, displaced starburst amacrine cells accounted for about […] of cells in the ganglion cell layer and ratios of RBPMS labeled cells to ChAT neurons was about 4 to 1 in central retina and 3 to 1 at other eccentricities (FIG. 11B).
# Optic Nerve Crush Procedure: Adult mice (2-6 mo.) were anesthetized with a cocktail of ketamine (85 mg/kg) and xylazine (20 mg/kg) (IP), the corneas were numbed with a drop of 0.5% proparacaine hydrochloride ophthalmic solution (Falcon Pharmaceuticals), and the animals were positioned under a Nikon dissecting microscope, dorsolaterally either on the left or right sides. The dorsomedial conjunctiva was cut with microdissection spring scissors, the […] muscles were separated, and the eyeball was slightly retracted to expose the optic nerve. Fine, self-closing forceps (Roboz, RS-5027) were used to clamp the optic nerve 1-2 mm behind the globe, for approximately 3 seconds without applying additional tension. The eye was repositioned within the orbit, the conjunctiva reflected over the extraocular eye muscles and the incision covered with ophthalmic polymyxin B-neomycin-bacitracin ointment (3.5 mg/gm, Bausch and Lomb). The optic nerves from the contralateral eye were untouched and used as untreated controls. Following the crush procedure, mice were given a subcutaneous injection of extended-release buprenorphine (0.05 mg/kg, Ethiqua XR) for analgesia and placed on a heating pad until awake and grooming, at which point they were returned to their home cages. Half the animals were given biotin-HDAP2 immediately following the procedure and then daily thereafter (3 mg/kg, IP) for 14 days.
# Immunohistochemistry: Fixed retinas were labeled with cell markers using conventional immunohistochemical protocols to identify cells and structures associated with biotin-HDAP2, and to identify retinal ganglion cells and starburst amacrine cells to assess cell survival following optic nerve crush. Retinas and sections were blocked and permeabilized with 4% normal donkey serum in 0.1M Tris or phosphate buffers with 0.5% Triton-X for 1 hour and then incubated overnight (for sections) or for 3 days (for wholemounts) at 4° C. in selected primary antibodies, and 2% normal donkey serum in the same buffer. The tissue was rinsed 3×10 minutes with buffer and then incubated with secondary antibodies for one hour at room temperature (sections) or overnight at 4° C. for wholemounts. Antibodies and markers used were rabbit anti-RBPMS (1:200; Invitrogen, PA5-31231) to label all retinal ganglion cells; goat anti-choline acetyltransferase (ChAT 1:100; EMD Millipore, AB144P) to label starburst amacrine cells; rabbit anti-glutamine synthetase (1:200; Invitrogen, PA1-46165) to label Müller cells; and rabbit anti-cox4 (1:200; Invitrogen, PA5-29992) to identify mitochondria. Secondary antibodies were raised in donkey and conjugated with either Alexa Fluor 488, 594 or 647 (1:500, Life Sciences). To identify the distribution of cell nuclei, and to delineate retinal layers, tissue was labeled with the nuclear stain ToPro3 (1:1000; Invitrogen) for 15 minutes. After staining, sections and retinas were rinsed in buffer and coverslipped in Vectashield mounting media (Vector Labs) to prevent photobleaching. […]
# [4] = test system: ARPE-19 cells; experiment: Mitochondrial potential in the presence of CCCP (TMRM); assay type: cell-based; conditions: 10 μM CCCP, TMRM
# Experimental: Effects of peptides on mitochondrial potential in the presence of Carbonyl cyanide m-chlorophenylhydrazone (CCCP): ARPE-19 cells (ATTC-CRL-2302) (5×10^4 cells) were seeded in 35 mm glass dishes in DMEM/F12 medium with 10% FBS for 24 hr. On the day of the experiment, cells were cultured in DMEM/F12 in the presence of different concentrations of biotin-HDAP2 for 60 min (FIG. 17B). Then, cells were incubated with 10 μM CCCP in the presence of 5 nM TMRM, 100 nM Mito View Green, and 10 μg/ml Hoechst 33342 for 15 min at 37° C. Fluorescent images were immediately obtained with a Nikon Eclipse 50i fluorescence microscope (60× objective) using FITC (Mito View Green), Texas Red (TMRM), and DAPI (Hoechst) filters. Images were collected from three independent experiments, using 4-6 random fields for each treatment group, and imaged and analyzed as described for NR.
# [5] = test system: MDBK cells; conditions: dilutions up 100 μM
compound,measurement,setting,value
"N=C(N)NCCC[C@@H](NC(=O)[C@H](Cc1ccccc1)NC(=O)[C@H](Cc1ccccc1)NC(=O)[C@@H](CCCNC(=N)N)NC(=O)CCCC[C@@H]1SC[C@@H]2NC(=O)N[C@@H]21)C(N)=O [biotin-HDAP2, Biotin-dArg-Phe-Phe-dArg-NH2] (Biotin-[dR]FF[dR]-NH2)",effect on interaction between NAO and POPC liposomes,[1],did not interfere with the interaction between NAO and the POPC liposomes
same,Nile Red shift,[2],no shift could be detected
same,protection of retinal ganglion cells following optic nerve crush,[3]; 3 mg/kg,protected retinal ganglion cells following optic nerve crush; also recorded: significantly greater survival of retinal ganglion cells
same,Average density of retinal ganglion cells,"[3]; Central, ONC",446.1 ± 42.92 cells/mm2
same,Average density of retinal ganglion cells,"[3]; Midperipheral, ONC",694.5 ± 52.61 cells/mm2
same,expression of RBPMS compared to untreated,[3]; ONC,doubled
same,ratio of RGCs to ChAT cells (to 1),"[3]; ONC, treated",0.70
same,more RBPMS labeled cells than untreated animals,"[3]; ONC, treated daily",40%
same,expression of RBPMS (mean pixel intensity),"[3]; ONC, treated, n=23",9.8±0.78 arbitrary fluorescence units
same,survival of retinal ganglion cells greater compared to untreated controls,"[3]; ONC, intraperitoneal or subcutaneous administration",50%
same,Average density of retinal ganglion cells,"[3]; Peripheral, ONC",565.4 ± 53.61 cells/mm2
same,percent increase in RBPMS labeled cells vs untreated ONC,[3]; central retina,18%
same,percent increase in RBPMS labeled cells vs untreated ONC,[3]; midperipheral retina,38%
same,percent increase in RBPMS labeled cells vs untreated ONC,[3]; periphery,50%
same,effect on CCCP-mediated mitochondrial depolarization,[4],prevented CCCP-mediated decreases in the mitochondrial membrane potential in a dose-dependent manner
same,effect on CCCP-mediated mitochondrial depolarization,[4]; listed as Biotin-HDAP2,prevented mitochondrial depolarization in a dose-dependent manner
same,cellular toxicity,[5],No toxicity in MDBK cell growth was observed
